Assay results: US8822467B2 (Ligand Pharmaceuticals Inc., priority 2009, dated 2014)

Molecular target: T1, human CRTH2 (Homo sapiens, UniProt Q9Y5Y4)
T1 construct: expressed in transfected cells
T1 sequence (Q9Y5Y4 1-395): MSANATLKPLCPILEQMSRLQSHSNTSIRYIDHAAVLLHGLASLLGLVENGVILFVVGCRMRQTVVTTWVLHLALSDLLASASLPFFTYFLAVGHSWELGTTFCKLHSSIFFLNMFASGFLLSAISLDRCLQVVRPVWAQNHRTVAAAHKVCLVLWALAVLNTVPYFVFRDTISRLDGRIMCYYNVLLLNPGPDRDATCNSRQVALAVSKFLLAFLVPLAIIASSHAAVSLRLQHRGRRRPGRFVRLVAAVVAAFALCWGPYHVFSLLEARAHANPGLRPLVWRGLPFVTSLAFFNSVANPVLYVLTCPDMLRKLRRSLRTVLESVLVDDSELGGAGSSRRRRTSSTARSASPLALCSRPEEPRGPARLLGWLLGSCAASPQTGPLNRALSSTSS
Experiment: [35S]GTPγS binding assay (SPA) on membranes from CHO-K1 cells stably expressing human CRTH2, stimulated with 60 nM DHK-PGD2
Type: biochemical
Conditions: membranes of CHO-K1 cells expressing human CRTH2; 60 nM DHK-PGD2; Table 1; read-out: CRTH2 hGTPγS IC50
Description: [^35S]GTPγS Binding Assay
SPA [^35S]G-TPγS binding was performed on membranes from CHO-K1 cells stably expressing human CRTH2. To a white, clear-bottomed 384-well plate, 4 μg membrane protein was incubated in the binding buffer (20 mM HEPES, pH 7.4, 10 mM MgCl2, 300 mM NaCl, 0.2% BSA) with 60 nM DHK-PGD2, 500 pM [^35S]GTPγS, 10 μM GDP, and 100 μg wheat germ agglutinin-coupled SPA beads (GE Healthcare) with and without increasing concentrations of compounds. The final assay volume was 40 μL and contained 1% DMSO. Samples were incubated for 2 h at ambient temperature. Plates were centrifuged 5 min at 1500 rpm. Plates were read after an additional 4 h using the Trilux 1450 Microbeta (PerkinElmer) with a 30 sec/well reading time.

Row | SMILES | IC50
1 | CN(Cc1ccc(OCC(=O)O)c(-c2cc(F)cc(C#N)c2)c1)S(=O)(=O)c1ccc(F)cc1 [Example 64, 2-(3-cyano-5-fluorophenyl)-4-((4-fluoro-N-methylphenylsulfonamido)methyl)phenoxyacetic acid] | 12 nM
2 | CN(Cc1ccc(OCC(=O)O)c(-c2cc(F)cc(F)c2)c1)S(=O)(=O)c1ccc(F)c(Cl)c1 [Example 67, 2-(3,5-difluorophenyl)-4-((3-chloro4-fluoro-N-methylphenylsulfonamido)methyl)phenoxyacetic acid] | 13 nM

Same assay, conditions: potency class symbols; Table 2; read-out: CRTH2 hGTPγS IC50

Row | SMILES | IC50
3 | CN(Cc1ccc(OCC(=O)O)c(-c2cccc(S(C)(=O)=O)c2)c1)S(=O)(=O)c1ccc(F)cc1 [Example 60, 2-(3-methylsulfonylphenyl)-4-((4-fluoro-N-methylphenylsulfonamido)methyl)phenoxyacetic acid] | < 100 nM
4 | CN(Cc1ccc(OCC(=O)O)c(-c2cc(F)cc(C#N)c2)c1)S(=O)(=O)c1cccc(F)c1 [Example 61, 2-(3-cyano-5-fluorophenyl)-4-((3-fluoro-N-methylphenylsulfonamido)methyl)phenoxyacetic acid] | < 100 nM
5 | CN(Cc1ccc(OCC(=O)O)c(-c2cccc(C#N)c2)c1)S(=O)(=O)c1ccc(F)c(Cl)c1 [Example 62, 2-(3-cyanophenyl)-4-((3-chloro-4-fluoro-N-methylphenylsulfonamido)methyl)phenoxyacetic acid] | < 100 nM
6 | CN(Cc1ccc(OCC(=O)O)c(-c2cccc(C#N)c2)c1)S(=O)(=O)c1ccc(F)c(F)c1 [Example 63, 2-(3-cyanophenyl)-4-((3,4-difluoro-N-methylphenylsulfonamido)methyl)phenoxyacetic acid] | < 100 nM
7 | CN(Cc1ccc(OCC(=O)O)c(-c2cc(F)cc(C#N)c2)c1)S(=O)(=O)c1ccc(F)cc1 [Example 64, 2-(3-cyano-5-fluorophenyl)-4-((4-fluoro-N-methylphenylsulfonamido)methyl)phenoxyacetic acid] | < 100 nM
8 | CN(Cc1ccc(OCC(=O)O)c(-c2cccc(C#N)c2)c1)S(=O)(=O)c1ccc(Cl)c(F)c1 [Example 65, 2-(3-cyanophenyl)-4-((3-fluoro-4-chloro-N-methylphenylsulfonamido)methyl)phenoxyacetic acid] | < 100 nM
9 | Cc1cc(S(=O)(=O)N(C)Cc2ccc(OCC(=O)O)c(-c3cccc(C#N)c3)c2)ccc1F [Example 66, 2-(3-cyanophenyl)-4-((3-methyl-4-fluoro-N-methylphenylsulfonamido)methyl)phenoxyacetic acid] | < 100 nM
10 | CN(Cc1ccc(OCC(=O)O)c(-c2cc(F)cc(F)c2)c1)S(=O)(=O)c1ccc(F)c(Cl)c1 [Example 67, 2-(3,5-difluorophenyl)-4-((3-chloro4-fluoro-N-methylphenylsulfonamido)methyl)phenoxyacetic acid] | < 100 nM
11 | CN(Cc1ccc(OCC(=O)O)c(-c2cc(F)cc(F)c2)c1)S(=O)(=O)c1cccc(Cl)c1 [Example 68, 2-(3,5-difluorophenyl)-4-((3-chloro-N-methylphenylsulfonamido)methyl)phenoxyacetic acid] | < 100 nM
12 | COc1ccc(S(=O)(=O)N(C)Cc2ccc(OCC(=O)O)c(-c3cccc(S(C)(=O)=O)c3)c2)cc1 [Example 69, 2-(3-methylsulfonylphenyl)-4-((4-methoxy-N-methylphenylsulfonamido)methyl)phenoxyacetic acid] | < 100 nM
13 | CN(Cc1ccc(OCC(=O)O)c(-c2cccc(C#N)c2)c1)S(=O)(=O)c1cccc(Cl)c1 [Example 70, 2-(3-cyanophenyl)-4-((3-chloro-N-methylphenylsulfonamido)methyl)phenoxyacetic acid] | < 100 nM
14 | COc1ccc(S(=O)(=O)N(C)Cc2ccc(OCC(=O)O)c(-c3cccc(C#N)c3)c2)cc1F [Example 71, 2-(3-cyanophenyl)-4-((3-fluoro-4-methoxy-N-methylphenylsulfonamido)methyl)phenoxyacetic acid] | < 100 nM
15 | CN(Cc1ccc(OCC(=O)O)c(-c2cccc(S(C)(=O)=O)c2)c1)S(=O)(=O)c1cc(F)cc(F)c1 [Example 72, 2-(3-methylsulfonylphenyl)-4-((3,5-difluoro-N-methylphenylsulfonamido)methyl)phenoxyacetic acid] | < 100 nM
16 | CN(Cc1cc(-c2cccc(C#N)c2)c(OCC(=O)O)cc1Cl)S(=O)(=O)c1ccccc1 [Example 73, 2-(3-cyanophenyl)-4-((N-methylphenylsulfonamido)methyl)-5-chlorophenoxyacetic acid] | < 100 nM
17 | CN(Cc1ccc(OCC(=O)O)c(-c2cccc(C(F)(F)F)c2)c1)S(=O)(=O)c1ccc(F)c(Cl)c1 [Example 74, 2-(3-trifluoromethylphenyl)-4-((3-chloro-4-fluoro-N-methylphenylsulfonamido)methyl)phenoxyacetic acid] | < 100 nM
18 | CN(Cc1ccc(OCC(=O)O)c(-c2cncc(S(C)(=O)=O)c2)c1)S(=O)(=O)c1ccc(F)cc1 [Example 75, 2-(3-methylsulfonyl-5-pyridinyl)-4-((4-fluoro-N-methylphenylsulfonamido)methyl)phenoxyacetic acid] | < 100 nM

Row | SMILES | IC50
19 | CN(Cc1ccc(OCC(=O)O)c(-c2cc(F)cc(C#N)c2)c1)S(=O)(=O)c1cc(F)cc(F)c1 [Example 76, 2-(3-cyano-5-fluorophenyl)-4-((3,5-difluoro-N-methylphenylsulfonamido)methyl)phenoxyacetic acid] | < 100 nM
20 | CN(Cc1cc(-c2cccc(C#N)c2)c(OCC(=O)O)cc1F)S(=O)(=O)c1ccc(F)cc1 [Example 77, 2-(3-cyanophenyl)-4-((4-fluoro-N-methylphenylsulfonamido)methyl)-5-fluorophenoxyacetic acid] | < 100 nM
21 | CN(Cc1ccc(OCC(=O)O)c(-c2cccc(S(C)(=O)=O)c2)c1)S(=O)(=O)c1ccccc1 [Example 78, 2-(3-methylsulfonylphenyl)-4-((N-methylphenylsulfonamido)methyl)phenoxyacetic acid] | < 100 nM
22 | CN(Cc1ccc(OCC(=O)O)c(-c2cc(F)cc(C(F)(F)F)c2)c1)S(=O)(=O)c1ccc(F)cc1 [Example 79, 2-(3-trifluoromethyl-5-fluorophenyl)-4-((4-fluoro-N-methylphenylsulfonamido)methyl)phenoxyacetic acid] | < 100 nM
23 | CN(Cc1ccc(OCC(=O)O)c(-c2cc(F)cc(C#N)c2)c1)S(=O)(=O)c1ccccc1 [Example 80, 2-(3-cyano-5-fluorophenyl)-4-((N-methylphenylsulfonamido)methyl)phenoxyacetic acid] | < 100 nM
24 | CS(=O)(=O)c1cccc(-c2cc(CNS(=O)(=O)c3ccc(F)cc3)ccc2OCC(=O)O)c1 [Example 81, 2-(3-methylsulfonylphenyl)-4-((4-fluorophenylsulfonamido)methyl)phenoxyacetic acid] | < 100 nM
25 | Cc1cc(S(=O)(=O)N(C)Cc2ccc(OCC(=O)O)c(-c3cc(F)cc(F)c3)c2)ccc1F [Example 82, 2-(3,5-difluorophenyl)-4-((3-methyl-4-fluoro-N-methylphenylsulfonamido)methyl)phenoxyacetic acid] | < 100 nM
26 | CCS(=O)(=O)c1cccc(-c2cc(CN(C)S(=O)(=O)c3ccc(F)cc3)ccc2OCC(=O)O)c1 [Example 83, 2-(3-ethylsulfonylphenyl)-4-((4-fluoro-N-methylphenylsulfonamido)methyl)phenoxyacetic acid] | < 100 nM
27 | Cc1ccc(-c2cc(CN(C)S(=O)(=O)c3ccc(F)cc3)ccc2OCC(=O)O)cc1S(C)(=O)=O [Example 84, 2-(3-methylsulfonyl-4-methyl-phenyl)-4-((4-fluoro-N-methylphenylsulfonamido)methyl)phenoxyacetic acid] | < 100 nM
28 | CN(C)S(=O)(=O)c1cccc(-c2cc(CN(C)S(=O)(=O)c3ccc(F)cc3)ccc2OCC(=O)O)c1 [Example 85, 2-(3-N,N-dimethylsulfamoylphenyl)-4-((4-fluoro-N-methylphenylsulfonamido)methyl)phenoxyacetic acid] | < 100 nM
29 | CN(Cc1ccc(OCC(=O)O)c(-c2cccc(S(C)(=O)=O)c2)c1)S(=O)(=O)c1ccc(C#N)cc1 [Example 86, 2-(3-methylsulfonylphenyl)-4-((4-cyano-N-methylphenylsulfonamido)methyl)phenoxyacetic acid] | < 100 nM
30 | CN(Cc1cc(-c2cccc(C#N)c2)c(OCC(=O)O)cc1F)S(=O)(=O)c1cccc(F)c1 [Example 87, 2-(3-cyanophenyl)-4-((3-fluoro-N-methylphenylsulfonamido)methyl)-5-fluorophenoxyacetic acid] | < 100 nM
31 | CN(Cc1ccc(OCC(=O)O)c(-c2cccc(S(C)(=O)=O)c2)c1)S(=O)(=O)c1cccc(C#N)c1 [Example 88, 2-(3-methylsulfonylphenyl)-4-((3-cyano-N-methylphenylsulfonamido)methyl)phenoxyacetic acid] | < 100 nM
32 | CN(Cc1ccc(OCC(=O)O)c(-c2cccc(C#N)c2)c1)S(=O)(=O)c1cccc(F)c1 [Example 89, 2-(3-cyanophenyl)-4-((3-fluoro-N-methylphenylsulfonamido)methyl)phenoxyacetic acid] | < 100 nM
33 | CN(Cc1ccc(OCC(=O)O)c(-c2cc(F)cc(F)c2)c1)S(=O)(=O)c1ccc(F)c(F)c1 [Example 90, 2-(3,5-difluorophenyl)-4-((3,4-difluoro-N-methylphenylsulfonamido)methyl)phenoxyacetic acid] | < 100 nM
